In patent US20250255848A1, “SUBSTITUTED 6,7-DIHYDRO-5H-BENZO[7]ANNULENE DERIVATIVES, PROCESSES FOR THEIR PREPARATION AND THERAPEUTIC USES THEREOF” (SANOFI, priority 2022, published 2025):

Target: ERα (Homo sapiens (Human), UniProt P03372)
Assay: Estrogen receptor degradation activity: breast cancer cell ERα in cell western assay
Format: cell-based
Details: MCF7 cells; for % Degradation At 0.3 μM: 4 hours, normalised to fulvestrant 0.1 μM and DMSO; for IC50 / DC50: 4 hours post compound addition, concentration which degrades 50% of the estrogen receptor; for DC50: read-out: Degradation IC50
Description: Said test involves measuring the in vitro degradation activity of the compounds of the Table 1a.
The measurements of the degradation activities were made using a breast cancer cell ERα in cell western assay as described hereunder.
MCF7 cells (ATCC) were seeded in 384 wells microplate (collagen coated) at a concentration of 10000 cells/30 μL per well in red phenol free MEM alpha medium (invitrogen) containing 5% charcoal dextran striped FBS. The following day, 9 points serial 1:5 dilution of each compound was added to the cells in 2.5 μL at final concentrations ranging from 0.3-0.0000018 μM (in table 2), or 0.1 μM for fulvestrant (using as positive control). At 4 hours post compound addition the cells were fixed by adding 25 μL of formalin (final concentration 5% formalin containing 0.1% triton) for 10 minutes at room temperature and then washed twice with PBS. Then, 50 μL of LI-COR blocking buffer containing 0.1% Triton was added to plate for 30 minutes at room temperature. LI-COR blocking buffer was removed and cells were incubated overnight at cold room with 50 μL anti-ER rabbit monoclonal antibody (Thermo scientific MA1-39540) diluted at 1:1000 in LI-COR blocking buffer containing 0.1% tween-20. Wells which were treated with blocking buffer but no antibody were used as background control. Wells were washed twice with PBS (0.1% tween-20) and incubated at 37° C. for 60 minutes in LI-COR (0.1% tween-20) containing goat anti-rabbit antibody Alexa 488 (1:1000) and Syto-64 a DNA dye (2 μM final concentration). Cells were then washed 3 times in PBS and scanned in ACUMEN explorer (TTP-Labtech). Integrated intensities in the green fluorescence and red fluorescence were measured to determine the levels of ERα and DNA respectively.
The degradation activity with respect to estrogen receptors in this test is given by the concentration which degrades 50% of the estrogen receptor (or IC50) in nM.
The % of ERα levels decrease were determined as follows: % inhibition=100*(1−(sample−fulvestrant:DMSO−fulvestrant)).

ERα, sequence (P03372 whole entry): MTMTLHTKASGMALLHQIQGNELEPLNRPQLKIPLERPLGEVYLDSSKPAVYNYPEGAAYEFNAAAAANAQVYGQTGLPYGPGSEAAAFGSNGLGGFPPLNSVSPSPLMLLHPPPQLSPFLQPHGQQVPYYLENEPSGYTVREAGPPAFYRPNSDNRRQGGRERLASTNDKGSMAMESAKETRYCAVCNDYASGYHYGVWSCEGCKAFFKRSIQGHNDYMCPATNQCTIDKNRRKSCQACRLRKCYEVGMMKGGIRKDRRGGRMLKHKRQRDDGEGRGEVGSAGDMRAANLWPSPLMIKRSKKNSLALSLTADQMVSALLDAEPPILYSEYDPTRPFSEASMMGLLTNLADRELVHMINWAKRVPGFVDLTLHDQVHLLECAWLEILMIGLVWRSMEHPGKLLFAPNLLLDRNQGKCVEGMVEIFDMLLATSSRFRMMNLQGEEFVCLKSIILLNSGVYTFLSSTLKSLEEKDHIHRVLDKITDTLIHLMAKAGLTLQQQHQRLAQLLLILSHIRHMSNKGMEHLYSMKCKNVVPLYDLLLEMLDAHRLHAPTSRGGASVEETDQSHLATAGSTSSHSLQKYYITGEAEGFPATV

% Degradation At 0.3 μM | IC50 | DC50 | SMILES
91% | 0.6 nM | – | Cc1ccc(C(F)(F)F)c(C)c1C1=C(c2ccc(C=C3CN(CCCF)C3)cc2)c2ccc(C(=O)O)cc2CCC1 [Compound 84, 8-(2,6-dimethyl-3-(trifluoromethyl)phenyl)-9-(4-((1-(3-fluoropropyl)azetidin-3-ylidene)methyl)phenyl)-6,7-dihydro-5H-benzo[7]annulene-3-carboxylic acid]
91% | 0.4 nM | – | CC(F)(F)c1cc(F)ccc1C1=C(c2ccc(C=C3CN(CCCF)C3)cc2)c2ccc(C(=O)O)cc2CCC1 [Compound 15, 8-(2-(1,1-difluoroethyl)-4-fluorophenyl)-9-(4-((1-(3-fluoropropyl)azetidin-3-ylidene)methyl)phenyl)-6,7-dihydro-5H-benzo[7]annulene-3-carboxylic acid]
92% | 0.2 nM | – | CCc1ccc(C2=C(c3ccc(C=C4CN(CCCF)C4)cc3)c3ccc(C(=O)O)cc3CCC2)c(C(F)(F)F)c1 [Compound 19, 8-(4-ethyl-2-(trifluoromethyl)phenyl)-9-(4-((1-(3-fluoropropyl)azetidin-3-ylidene)methyl)phenyl)-6,7-dihydro-5H-benzo[7]annulene-3-carboxylic acid]
91% | 0.3 nM | – | O=C(O)c1ccc2c(c1)CCCC(c1cccc(F)c1OC(F)F)=C2c1ccc(C=C2CN(CCCF)C2)cc1 [Compound 33, 8-(2-(difluoromethoxy)-3-fluorophenyl)-9-(4-((1-(3-fluoropropyl)azetidin-3-ylidene)methyl)phenyl)-6,7-dihydro-5H-benzo[7]annulene-3-carboxylic acid]
94% | 0.7 nM | – | O=C(O)c1ccc2c(c1)CCCC(c1cccc(Cl)c1OC(F)(F)F)=C2c1ccc(C=C2CN(CCCF)C2)cc1 [Compound 34, 8-(3-chloro-2-(trifluoromethoxy)phenyl)-9-(4-((1-(3-fluoropropyl)azetidin-3-ylidene)methyl)phenyl)-6,7-dihydro-5H-benzo[7]annulene-3-carboxylic acid]
93% | 0.5 nM | – | Cc1cc(C)c(C2=C(c3ccc(C=C4CN(CCCF)C4)cc3)c3ccc(C(=O)O)cc3CCC2)c(C)c1 [Compound 10, 9-(4-((1-(3-fluoropropyl)azetidin-3-ylidene)methyl)phenyl)-8-mesityl-6,7-dihydro-5H-benzo[7]annulene-3-carboxylic acid]
94% | 0.5 nM | – | COc1c(F)ccc(C)c1C1=C(c2ccc(C=C3CN(CCCF)C3)cc2)c2ccc(C(=O)O)cc2CCC1 [Compound 7, 8-(3-fluoro-2-methoxy-6-methylphenyl)-9-(4-((1-(3-fluoropropyl)azetidin-3-ylidene)methyl)phenyl)-6,7-dihydro-5H-benzo[7]annulene-3-carboxylic acid]
93% | 0.2 nM | – | O=C(O)c1ccc2c(c1)CCCC(c1ccccc1C(F)F)=C2c1ccc(C=C2CN(CCCF)C2)cc1 [Compound 58, 8-(2-(difluoromethyl)phenyl)-9-(4-((1-(3-fluoropropyl)azetidin-3-ylidene)methyl)phenyl)-6,7-dihydro-5H-benzo[7]annulene-3-carboxylic acid]
100% | 0.4 nM | – | O=C(O)c1ccc2c(c1)CCCC(c1cccc(C(F)(F)F)c1C(F)(F)F)=C2c1ccc(C=C2CN(CCCF)C2)cc1 [Compound 79, 8-(2,3-bis(trifluoromethyl)phenyl)-9-(4-((1-(3-fluoropropyl)azetidin-3-ylidene)methyl)phenyl)-6,7-dihydro-5H-benzo[7]annulene-3-carboxylic acid]
93% | 0.5 nM | – | Cc1cc(C(F)F)ccc1C1=C(c2ccc(C=C3CN(CCCF)C3)cc2)c2ccc(C(=O)O)cc2CCC1 [Compound 44, 8-(4-(difluoromethyl)-2-methylphenyl)-9-(4-((1-(3-fluoropropyl)azetidin-3-ylidene)methyl)phenyl)-6,7-dihydro-5H-benzo[7]annulene-3-carboxylic acid]
91% | 0.4 nM | – | Cc1ccc(C2=C(c3ccc(C=C4CN(CCCF)C4)cc3)c3ccc(C(=O)O)cc3CCC2)c(C)c1Cl [Compound 13, 8-(3-chloro-2,4-dimethylphenyl)-9-(4-((1-(3-fluoropropyl)azetidin-3-ylidene)methyl)phenyl)-6,7-dihydro-5H-benzo[7]annulene-3-carboxylic acid]
91% | 0.8 nM | – | CC1(C)CCC(C2=C(c3ncc(C=C4CN(CCCF)C4)cc3F)c3ccc(C(=O)O)cc3CCC2)CC1 [Compound 65, 8-(4,4-dimethylcyclohexyl)-9-(3-fluoro-5-((1-(3-fluoropropyl)azetidin-3-ylidene)methyl)pyridin-2-yl)-6,7-dihydro-5H-benzo[7]annulene-3-carboxylic acid]
95% | 0.7 nM | – | Cc1cccc(OC(F)(F)F)c1C1=C(c2ccc(C=C3CN(CCCF)C3)cc2)c2ccc(C(=O)O)cc2CCC1 [Compound 77, 9-(4-((1-(3-fluoropropyl)azetidin-3-ylidene)methyl)phenyl)-8-(2-methyl-6-(trifluoromethoxy)phenyl)-6,7-dihydro-5H-benzo[7]annulene-3-carboxylic acid]
93% | 0.6 nM | – | COc1ccc(C(F)F)c(C2=C(c3ccc(C=C4CN(CCCF)C4)cc3)c3ccc(C(=O)O)cc3CCC2)c1 [Compound 45, 8-(2-(difluoromethyl)-5-methoxyphenyl)-9-(4-((1-(3-fluoropropyl)azetidin-3-ylidene)methyl)phenyl)-6,7-dihydro-5H-benzo[7]annulene-3-carboxylic acid]
85% | – | 0.3 nM | Cc1c(C2=C(c3ccc(C=C4CN(CCCF)C4)cc3)c3ccc(C(=O)O)cc3CCC2)ccc(C(F)(F)F)c1F [Compound 73, 8-(3-fluoro-2-methyl-4-(trifluoromethyl)phenyl)-9-(4-((1-(3-fluoropropyl)azetidin-3-ylidene)methyl)phenyl)-6,7-dihydro-5H-benzo[7]annulene-3-carboxylic acid]
92% | 0.4 nM | – | Cc1cc(C)c(C2=C(c3ccc(C=C4CN(CCCF)C4)cc3)c3ccc(C(=O)O)cc3CCC2)c(Cl)c1 [Compound 11, 8-(2-chloro-4,6-dimethylphenyl)-9-(4-((1-(3-fluoropropyl)azetidin-3-ylidene)methyl)phenyl)-6,7-dihydro-5H-benzo[7]annulene-3-carboxylic acid]
92% | – | 0.2 nM | O=C(O)c1ccc2c(c1)CCCC(C1CC13CCC3)=C2c1ccc(C=C2CN(CCCF)C2)cc1 (single isomer, unassigned) [Compound 36, 9-(4-((1-(3-fluoropropyl)azetidin-3-ylidene)methyl)phenyl)-8-(spiro[2.3]hexan-1-yl)-6,7-dihydro-5H-benzo[7]annulene-3-carboxylic acid]
91% | 0.9 nM | – | C[C@H]1CC[C@@H](C2=C(c3ccc(C=C4CN(CCCF)C4)cc3)c3ccc(C(=O)O)cc3CCC2)CC1 [Compound 61, 9-(4-((1-(3-fluoropropyl)azetidin-3-ylidene)methyl)phenyl)-8-(cis-4-methylcyclohexyl)-6,7-dihydro-5H-benzo[7]annulene-3-carboxylic acid]
92% | 0.7 nM | – | COc1cccc(C2=C(c3ccc(C=C4CN(CCCF)C4)cc3)c3ccc(C(=O)O)cc3CCC2)c1OC [Compound 81, 8-(2,3-dimethoxyphenyl)-9-(4-((1-(3-fluoropropyl)azetidin-3-ylidene)methyl)phenyl)-6,7-dihydro-5H-benzo[7]annulene-3-carboxylic acid]
95% | 0.5 nM | – | COc1cc(C(F)(F)F)cc(C(F)(F)F)c1C1=C(c2ccc(C=C3CN(CCCF)C3)cc2)c2ccc(C(=O)O)cc2CCC1 [Compound 71, 9-(4-((1-(3-fluoropropyl)azetidin-3-ylidene)methyl)phenyl)-8-(2-methoxy-4,6-bis(trifluoromethyl)phenyl)-6,7-dihydro-5H-benzo[7]annulene-3-carboxylic acid]
93% | 0.5 nM | – | COc1ccc(C(F)(F)F)c(C2=C(c3ccc(C=C4CN(CCCF)C4)cc3)c3ccc(C(=O)O)cc3CCC2)c1 [Compound 47, 9-(4-((1-(3-fluoropropyl)azetidin-3-ylidene)methyl)phenyl)-8-(5-methoxy-2-(trifluoromethyl)phenyl)-6,7-dihydro-5H-benzo[7]annulene-3-carboxylic acid]
